As usually defined, the logP is the decadic logarithm of the partition coefficient of the neutral form, usually between octanol and water. A high value points to higher lipophilicity. As usually defined, the half-life is the time in which the quantity being followed falls by half. Read a low half-life as rapid decline. For orientation: IC90 means the point of the concentration-response curve where the effect stands at 90%. A higher IC90 goes with a need for much substance.

Data set [1] addresses Human immunodeficiency virus type 1 reverse transcriptase (Human immunodeficiency virus 1) (UniProt Q72547). Kind of data set: Inhibitory activity against human immunodeficiency virus-1 reverse transcriptase (HIV-1 RT) at a concentration up to 100 uM; IA-Inactive.
Data set [2] is described as follows: Partition coefficient (logP). In kind it is physicochemical. The note with it: octanol/water.
Data set [3] is described as follows: Half life at pH 2.0. The conditions noted are these: buffer. It counts as ADME.
Data set [4] in a line: Half life at pH 1.2. The conditions noted are these: buffer. It counts as ADME.
Data set [5] has as its target Human immunodeficiency virus type 1 reverse transcriptase (Human immunodeficiency virus 1) (UniProt Q72547). As to the kind of experiment: Inhibitory activity against human immunodeficiency virus-1 reverse transcriptase (HIV-1 RT) at a concentration up to 10 uM; IA=Inactive.
Data set [6] in a line: Half life at pH 7.3. In kind it is ADME. The conditions noted are these: buffer.
Data set [7] concerns the target Human immunodeficiency virus type 1 reverse transcriptase (Human immunodeficiency virus 1) (UniProt Q72547). As to the kind of experiment: Inhibitory activity against human immunodeficiency virus-1 reverse transcriptase (HIV-1 RT).

Active and inactive are the calls of the source. The calls are words filed in the database; no cut-off is given here.

`Cc1cn([C@@H]2O[C@H](COP(=O)(O)OP(=O)(O)OP(=O)(O)O)c3ccccc32)c(=O)[nH]c1=O`: in data set [1], the result was inactive.

In the case of `Cc1cn([C@@H]2O[C@H](CO)c3ccccc32)c(=O)[nH]c1=O`, in data set [2], the logP amounted to 0.55. Moreover, the half-life in data set [3] is 31 days; in data set [4], 18 days; in data set [6], 34 days. Moreover, in data set [5], the outcome was inactive.

As to `Cc1cn([C@H]2C=C[C@@H](CO)O2)c(=O)[nH]c1=O` [STAVUDINE], the logP in data set [2] is -0.77. Moreover, the half-life in data set [3] is 5 days; in data set [4] it was 3 days; in data set [6], 6 days. This molecule also came in with an IC90 in data set [7] of 100 nM.

The record behind these values is ChEMBL document CHEMBL1136500, “1,3-dihydrobenzo[c]furan nucleoside analogues: additional studies of the thymine derivative” (Bioorg Med Chem Lett, 2003).
